According to ChEMBL document CHEMBL1137427, “Efforts toward oral bioavailability in factor VIIa inhibitors” (Bioorg Med Chem Lett, 2006):

How the values were obtained:
[1] = target: T1, Coagulation factor VII (Homo sapiens, UniProt P08709)
T1 sequence (P08709 whole entry): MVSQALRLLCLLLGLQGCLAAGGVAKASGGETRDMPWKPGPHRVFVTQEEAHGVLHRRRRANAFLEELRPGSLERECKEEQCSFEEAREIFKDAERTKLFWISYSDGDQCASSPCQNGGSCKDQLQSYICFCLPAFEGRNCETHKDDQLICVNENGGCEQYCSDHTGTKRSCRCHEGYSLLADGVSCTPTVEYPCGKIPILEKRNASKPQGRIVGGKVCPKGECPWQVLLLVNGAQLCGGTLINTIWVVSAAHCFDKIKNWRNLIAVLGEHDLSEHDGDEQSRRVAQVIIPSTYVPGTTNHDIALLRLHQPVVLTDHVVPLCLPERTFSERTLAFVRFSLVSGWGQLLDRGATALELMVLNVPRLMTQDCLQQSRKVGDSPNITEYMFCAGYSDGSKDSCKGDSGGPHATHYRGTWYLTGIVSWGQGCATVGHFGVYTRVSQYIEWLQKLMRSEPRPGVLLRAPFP

[2] = Mean residence time in iv dosed rat; format: ADME, organism-based; conditions: in vivo
[3] = target: Coagulation factor VII/tissue factor (Homo sapiens) (UniProt P08709+P13726); conditions: Plasma
Description: Anticoagulant potency in human plasma as measured by prothrombin time

[4] = Oral bioavailability in Sprague-Dawley rat at 10 mg/kg, po (AUC po, jv/AUC iv, jv); format: ADME, organism-based; conditions: in vivo
[5] = Cmax in jugular vein catheter of Sprague-Dawley rat at 10 mg/kg, po; format: ADME, organism-based; set-up: dose 10 mg/kg, route oral; conditions: in vivo
[6] = Tmax in jugular vein catheter of Sprague-Dawley rat at 10 mg/kg, po; format: ADME, organism-based; set-up: dose 10 mg/kg, route oral; conditions: in vivo
[7] = Cmax in portal vein catheter of Sprague-Dawley rat at 10 mg/kg, po; format: ADME, organism-based; set-up: dose 10 mg/kg, route oral; conditions: in vivo
[8] = AUC in jugular vein catheter of Sprague-Dawley rat at 10 mg/kg, po; format: ADME, organism-based; set-up: dose 10 mg/kg, route oral; conditions: plasma
[9] = Terminal half life in portal vein catheter of Sprague-Dawley rat at 10 mg/kg, po; format: ADME, organism-based; set-up: dose 10 mg/kg, route oral; conditions: in vivo
[10] = AUC in portal vein catheter of Sprague-Dawley rat at 10 mg/kg, po; format: ADME, organism-based; set-up: dose 10 mg/kg, route oral; conditions: plasma
[11] = Oral absorption in Sprague-Dawley rat at 10 mg/kg, po (AUC po, pv/AUC iv, jv); format: ADME, organism-based; set-up: dose 10 mg/kg, route oral; conditions: in vivo
[12] = Tmax in portal vein catheter of Sprague-Dawley rat at 10 mg/kg, po; format: ADME, organism-based; set-up: dose 10 mg/kg, route oral; conditions: in vivo
[13] = Terminal half life in jugular vein catheter of Sprague-Dawley rat at 10 mg/kg, po; format: ADME, organism-based; set-up: dose 10 mg/kg, route oral; conditions: in vivo
[14] = Mean residence time in iv dosed Sprague-Dawley rat; format: ADME, organism-based; conditions: in vivo

Row | SMILES | Ki [1] [nM] | MRT [2] [min] | 2PT [3] [µM] | other results
1 | N=C(N)c1ccc2[nH]c(-c3cc(CC(=O)O)cc(-c4cc(CNC(N)=O)ccc4O)c3O)nc2c1 | 14 | < 20 |  | 
2 | N=C(N)c1ccc2[nH]c(-c3cccc(-c4cc(CNC(N)=O)ccc4O)c3O)nc2c1 | 14 | 20 | 2.3 | 
3 | CCCCCC(=O)NCc1ccc(O)c(-c2cccc(-c3cc4cc(C(=N)NO)ccc4[nH]3)c2O)c1 |  |  |  | bioavailability [4]: 11%; Cmax [5]: 1730 nM; Tmax [6]: 30 min; Cmax [7]: 1310 nM; AUC [8]: 2.4 µM·h; half-life [9]: 49 min; AUC [10]: 2.03 µM·h; Fa [11]: 9%; Tmax [12]: 31 min; half-life [13]: 54 min
4 | N=C(N)c1ccc2[nH]c(-c3cccc(-c4cc(CNC(=O)CO)ccc4O)c3O)cc2c1 | 3 |  | 0.9 | MRT [14]: 1.95 h
5 | CCCCCC(=O)NCc1ccc(O)c(-c2cccc(-c3cc4cc(C(=N)N)ccc4[nH]3)c2O)c1 | 13 |  | 1.4 | Cmax [5]: 12 nM; Tmax [6]: 30 min; Cmax [7]: 14 nM; MRT [14]: 1.48 h; AUC [8]: 0.0122 µM·h; half-life [9]: 26 min; AUC [10]: 0.0147 µM·h; Tmax [12]: 40 min; half-life [13]: 37 min
6 | CC(=O)NCc1ccc(O)c(-c2cccc(-c3cc4cc(C(=N)N)ccc4[nH]3)c2O)c1 | 120 |  |  | 
7 | N=C(N)c1ccc2[nH]c(-c3cccc(-c4cc(CNC(=O)N5CCOCC5)ccc4O)c3O)cc2c1 | 17 |  | 2 | 
8 | N=C(N)c1ccc2[nH]c(-c3cc(C(CC(=O)O)C(=O)O)cc(-c4cc(CNC(N)=O)ccc4O)c3O)nc2c1 (centres undefined) | 1 | > 60 | 1.9 | 

The next lines start with results.

Row | Ki [1] [nM] | MRT [2] [min] | 2PT [3] [µM] | SMILES | other results
9 | 4 | < 20 | 2 | Cc1cc(-c2nc3cc(C(=N)N)ccc3[nH]2)c(O)c(-c2cc(CNC(N)=O)ccc2O)c1 | 
10 | 5 | < 20 | 2.5 | N=C(N)c1ccc2[nH]c(-c3cc(F)cc(-c4cc(CNC(N)=O)ccc4O)c3O)nc2c1 | 
11 | 16 |  | 0.9 | CN(C)CCCC(=O)NCc1ccc(O)c(-c2cccc(-c3cc4cc(C(=N)N)ccc4[nH]3)c2O)c1 | MRT [14]: 0.833 h
